Measured values: patent US8710233B2 (Gruenenthal GmbH, priority 2005, dated 2014)
Read-outs that look alike come from different tables or passages of the source.

How the values were obtained:
[1] = tested on: capsaicin induced hypothermie; assay: Hypothermie assay in the mouse (capsaicin induced hypothermie); assay type: in vivo; conditions: mouse, read-out: inhibition hypothermie (n = 5); for inhibition in vivo at 0.3 mg/kg: 0.3 mg/kg body weight po; for inhibition in vivo at 1 mg/kg: 1 mg/kg body weight po; for inhibition in vivo at 0.1 mg/kg: 0.1 mg/kg body weight po
Description: V. Hypothermie Assay an der Maus
Male NMRI mice (weight 25-35 gram, supplier IFFA CREDO, Bruxelles, Belgium) are used in the hypothermie assay. The animals are kept under standardized conditions: light/darkness interval (6:00 to 18:00 light; 18:00 to 6:00 Uhr darkness), room temperature 19-22° C., relative humidity 35-70%, 15 times per hour change of compartment air, airflow <0.2 m/sec. The animals were fed on a standardized diet (ssniff diet, ssniff Spezialdiäten GmbH, Soest, Germany) and tap water. Water and diet were detracted during the experiment. All animals were used once in the experiment. The animals were allowed to adapt to the experimental conditions for at least 5 days.
The acute application of capsaicin (VR-1 agonist) leads to a decrease of the core body temperature in rat and mice via stimulation of heat sensors. Only compounds which act as specific VR-1-receptor antagonists can antagonize the capsaicin induced hypothermie. In contrast, morphine induced hypothermie is not antagonized by VR-1 antagonists. Thus, this experiment is suitable for the determination of compounds that act as VR1-antagonists via their effect on the core body temperature.
For the determination of the core body temperature a digital thermometer was used (Thermalert TH-5, physitemp, Clifton N.J., USA). The measuring head was inserted into the rectum.
The individual basis value is determined by measuring the body temperature twice in an interval of about half an hour. […] […] The test compound is given 10 min (i.v.) or 15 min (p.o.), respectively, before application of capsaicin. The body temperature is determined 7.5/15 and 30 min after application of capsaicin (i.v.+i.p.) or 15/30/60/90/120 min after application of capsaicin (p.o.+i.p.), respectively. In addition, another group of mice is only given the test compound or a vehicle control.
The measuring points are given as average values±S.E.M. of the absolute values. The antagonistic effect is given in percent of inhibition of capsaicin induced hypothermie.

[2] = target: T1, vanilloid receptor 1 (VR1/TRPV1) of the rat species (Rattus norvegicus, UniProt O35433); assay: FLIPR Ca2+ influx assay on rat dorsal root ganglia cells (pharmacological method I); assay type: cell-based; conditions: table 4, capsaicin
T1 construct: The spinal column is removed from decapitated rats; from tissue; host or cells: primary cells dissociated from rat dorsal root ganglia
Outline: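 Primary rat dorsal root ganglion cells loaded with 2 μM Fluo-4, Ca2+ influx read on FLIPR as peak fluorescence. Triplicates, at least 3 independent experiments.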

VR1/TRPV1 receptor = VR1/TRPV1 receptor (Homo sapiens, UniProt Q8NER1); assay: IC50 (human) after pH stimulus; assay type: cell-based; conditions: for IC50: table 4
vanilloid receptor (VR1) = target: T2, vanilloid receptor (VR1) (Homo sapiens, UniProt Q8NER1); assay: FLIPR Ca2+ influx assay on CHO K1 cells transfected with the VR1 gene (pharmacological method II); assay type: cell-based; conditions: table 4; capsaicin; read-out: Ki (human) Cap.
T2 construct: expressed in transfected cells; host or cells: CHO K1 cells (ECACC), stably transfected
T2 sequence (Q8NER1 whole entry): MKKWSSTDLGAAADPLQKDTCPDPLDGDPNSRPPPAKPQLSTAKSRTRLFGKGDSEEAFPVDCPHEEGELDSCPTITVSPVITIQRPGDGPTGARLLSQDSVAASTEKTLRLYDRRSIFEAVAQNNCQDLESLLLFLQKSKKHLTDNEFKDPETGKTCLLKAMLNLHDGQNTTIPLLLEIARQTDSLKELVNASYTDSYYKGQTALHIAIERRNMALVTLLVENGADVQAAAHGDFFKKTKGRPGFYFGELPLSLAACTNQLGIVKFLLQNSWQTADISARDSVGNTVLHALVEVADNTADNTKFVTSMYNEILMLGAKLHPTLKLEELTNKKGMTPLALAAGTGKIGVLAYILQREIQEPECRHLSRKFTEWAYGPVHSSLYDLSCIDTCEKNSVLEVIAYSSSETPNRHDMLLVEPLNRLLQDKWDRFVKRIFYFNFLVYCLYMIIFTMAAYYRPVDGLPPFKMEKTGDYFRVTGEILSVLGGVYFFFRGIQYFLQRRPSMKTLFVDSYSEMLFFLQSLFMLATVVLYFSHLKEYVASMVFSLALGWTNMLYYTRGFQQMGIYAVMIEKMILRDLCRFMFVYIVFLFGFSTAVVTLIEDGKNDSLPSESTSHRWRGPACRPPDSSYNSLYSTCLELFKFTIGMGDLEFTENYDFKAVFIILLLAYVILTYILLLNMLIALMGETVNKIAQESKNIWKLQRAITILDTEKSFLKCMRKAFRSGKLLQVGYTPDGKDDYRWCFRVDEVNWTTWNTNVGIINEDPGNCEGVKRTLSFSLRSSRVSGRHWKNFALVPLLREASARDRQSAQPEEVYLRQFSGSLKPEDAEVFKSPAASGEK

T1 sequence (O35433 whole entry): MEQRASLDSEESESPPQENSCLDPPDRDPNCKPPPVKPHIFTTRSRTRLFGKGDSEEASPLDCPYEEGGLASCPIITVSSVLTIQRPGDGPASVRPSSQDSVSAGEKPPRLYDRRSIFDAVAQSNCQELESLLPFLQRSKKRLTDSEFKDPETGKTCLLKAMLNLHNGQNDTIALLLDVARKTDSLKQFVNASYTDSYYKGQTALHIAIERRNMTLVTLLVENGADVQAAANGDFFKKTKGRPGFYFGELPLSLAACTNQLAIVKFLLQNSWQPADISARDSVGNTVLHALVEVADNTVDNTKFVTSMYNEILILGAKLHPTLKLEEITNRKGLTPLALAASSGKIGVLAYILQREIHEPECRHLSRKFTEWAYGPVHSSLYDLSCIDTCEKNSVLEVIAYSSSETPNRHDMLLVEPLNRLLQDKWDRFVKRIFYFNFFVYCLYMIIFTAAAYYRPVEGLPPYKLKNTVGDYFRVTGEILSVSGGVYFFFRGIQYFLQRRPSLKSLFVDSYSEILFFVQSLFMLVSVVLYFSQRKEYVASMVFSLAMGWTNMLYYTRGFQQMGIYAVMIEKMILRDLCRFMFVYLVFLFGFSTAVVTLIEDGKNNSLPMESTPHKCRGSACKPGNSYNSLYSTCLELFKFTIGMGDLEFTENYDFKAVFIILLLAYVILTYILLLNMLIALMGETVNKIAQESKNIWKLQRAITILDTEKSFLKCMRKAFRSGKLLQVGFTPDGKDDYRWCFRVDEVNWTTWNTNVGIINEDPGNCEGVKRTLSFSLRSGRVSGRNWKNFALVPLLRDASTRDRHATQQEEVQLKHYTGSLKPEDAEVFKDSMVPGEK
VR1/TRPV1 receptor, sequence (Q8NER1 whole entry): as the sequence (Q8NER1 whole entry) above

Structure (SMILES)	inhibition in vivo at 0.3 mg/kg [1] [%]	Ki ([2]; read-out: Ki (rat) Cap.) [nM]	IC50 (VR1/TRPV1 receptor) [nM]	Ki (vanilloid receptor (VR1)) [nM]	further results
CC(C(=O)NCc1ccc(C(F)(F)F)nc1OCc1ccccc1)c1ccc(NS(C)(=O)=O)c(F)c1 (stereo not shown) [Compound 106]	21				inhibition in vivo at 1 mg/kg [1]: 22%; inhibition in vivo at 10 mg/kg ([1]; 10 mg/kg body weight po): 84%
CC(C(=O)NCc1ccc(C(F)(F)F)nc1N1CCC(Nc2ccccc2)CC1)c1ccc(NS(C)(=O)=O)c(F)c1 (stereo not shown) [Compound 290]	78				inhibition in vivo at 1 mg/kg [1]: 68%
CCCN(CCC)c1nc(C(F)(F)F)ccc1CNC(=O)C(C)c1ccc(NS(C)(=O)=O)c(F)c1 (stereo not shown) [Example 16, N-((2-(dipropylamino)-6-(trifluoromethyl)pyridin-3-yl)methyl)-2-(3-fluoro-4-(methylsulfonamido)phenyl)propanamide]	12	0.8	14.7	0.2	
C[C@@H](C(=O)NCc1ccc(C(F)(F)F)cc1N1CCCCC1)c1ccc(NS(C)(=O)=O)c(F)c1 [Example 32, (R)-2-(3-fluoro-4-(methylsulfonamido)phenyl)-N-(2-(piperidin-1-yl)-4-(trifluoromethyl)benzyl)propanamide]	55	2.6	135	1.7	
CC(C(=O)NCc1ccc(C(F)(F)F)nc1N1CCCCCC1)c1ccc(NS(C)(=O)=O)c(F)c1 (stereo not shown) [Example 81, N-(2-azepan-1-yl-6-trifluoromethyl-pyridin-3-ylmethyl)-2-(3-fluoro-4-methylsulfonamido-phenyl)-propionamide]	21	2.4			
CC(C(=O)NCc1ccc(C(F)(F)F)nc1-n1ccnc1)c1ccc(NS(C)(=O)=O)c(F)c1 (stereo not shown) [Example 87, 2-(3-fluoro-4-methylsulfonamido-phenyl)-N-((6-(trifluoromethyl)-2-(1H-imidazol-1-yl)pyridin-3-yl)methyl)-propionamide]	0	143	2570		
CC(C(=O)NCc1ccc(C(F)(F)F)nc1-c1ccc(F)cc1)c1ccc(NS(C)(=O)=O)c(F)c1 (stereo not shown) [Example 89]	1	1.2	131	0.4	
CCCCCCOc1nc(C(F)(F)F)ccc1CNC(=O)[C@@H](C)c1ccc(NS(C)(=O)=O)c(F)c1 [Example 93, (S)-2-(3-fluoro-4-methylsulfonamido-phenyl)-N-(2-hexyloxy-6-trifluoromethyl-pyridin-3-ylmethyl)-propionamide]	4		12.3	0.4	Ki ([2]; Ki (rat) Cap.): 0.2 nM
CCCCCCOc1nc(C(F)(F)F)ccc1CNC(=O)[C@H](C)c1ccc(NS(C)(=O)=O)c(F)c1 [Example 94, (R)-2-(3-fluoro-4-methylsulfonamido-phenyl)-N-(2-hexyloxy-6-trifluoromethyl-pyridin-3-ylmethyl)-propionamide]	0				
CC(C)COc1cc(C(F)(F)F)ccc1CNC(=O)[C@H](C)c1ccc(NS(C)(=O)=O)c(F)c1 [Example 99, (R)-2-(3-fluoro-4-methylsulfonamido-phenyl)-N-(2-isobutoxy-4-trifluoromethyl-benzyl)-propionamide]	1		419	5.8	
CC(C(=O)NCc1ccc(C(F)(F)F)nc1OCC1CC1)c1ccc(NS(C)(=O)=O)c(F)c1 (stereo not shown) [Example 100, N-(2-cyclopropylmethoxy-6-trifluoromethyl-pyridin-3-ylmethyl)-2-(3-fluoro-4-methylsulfonamido-phenyl)-propionamide]	26		115	1.1	Ki ([2]; Ki (rat) Cap.): 1.2 nM
CC(C(=O)NCc1ccc(C(F)(F)F)nc1OCc1ccccc1)c1ccc(NS(C)(=O)=O)c(F)c1 (stereo not shown) [Example 106, N-(2-benzyloxy-6-trifluoromethyl-pyridin-3-ylmethyl)-2-(3-fluoro-4-methylsulfonamido-phenyl)-propionamide]			18.6	0.5	inhibition in vivo at 0.1 mg/kg [1]: 24%
COc1cccc(COc2nc(C(F)(F)F)ccc2CNC(=O)C(C)c2ccc(NS(C)(=O)=O)c(F)c2)c1 (stereo not shown) [Example 107, 2-(3-fluoro-4-methylsulfonamido-phenyl)-N-[2-(3-methoxy-benzyloxy)-6-trifluoromethyl-pyridin-3-ylmethyl]-propionamide]	21		43.7	0.8	Ki ([2]; Ki (rat) Cap.): 1 nM
CC(C(=O)NCc1ccc(C(F)(F)F)nc1Nc1ccccc1)c1ccc(NS(C)(=O)=O)c(F)c1 (stereo not shown) [Example 110, 2-(3-fluoro-4-methylsulfonamido-phenyl)-N-(2-phenylamino-6-trifluoromethyl-pyridin-3-ylmethyl)-propionamide]	13	63.1	1400	59.6	
C[C@@H](C(=O)NCc1ccc(C(F)(F)F)nc1-c1ccc(F)c(Cl)c1)c1ccc(NS(C)(=O)=O)c(F)c1 [Example 121, (R)-N-[2-(3-chloro-4-fluoro-phenyl)-6-trifluoromethyl-pyridin-3-ylmethyl]-2-(3-fluoro-4-methylsulfonamido-phenyl)-propionamide]	12	5.8		13.2	inhibition at 10 µM (VR1/TRPV1 receptor; @ 10 μM, read-out: inhibition in percent, IC50 (human) after pH stimulus): 56%
CCCCSc1nc(C(F)(F)F)ccc1CNC(=O)C(C)c1ccc(NS(C)(=O)=O)c(F)c1 (stereo not shown) [Example 122]	33	0.6	40.4	0.7	
CC(C)CCOc1nc(C(F)(F)F)ccc1CNC(=O)C(C)c1ccc(NS(C)(=O)=O)c(F)c1 (stereo not shown) [Example 123, 2-(3-fluoro-4-methylsulfonamido-phenyl)-N-[2-(3-methyl-butoxy)-6-trifluoromethyl-pyridin-3-ylmethyl]-propionamide]	47	0.6	15.1	0.8	
CC(C(=O)NCc1ccc(C(F)(F)F)nc1OCC1CC1C)c1ccc(NS(C)(=O)=O)c(F)c1 (stereo not shown) [Example 124, 2-(3-fluoro-4-methylsulfonamido-phenyl)-N-[2-(2-methyl-cyclopropylmethoxy)-6-trifluoromethyl-pyridin-3-ylmethyl]-propionamide]	39	0.4	5.1	0.3	
CC1CCN(c2nc(C(F)(F)Cl)ccc2CNC(=O)C(C)c2ccc(NS(C)(=O)=O)c(F)c2)CC1 (stereo not shown) [Example 131]	26	0.4	5.9	0.3	
CC(C(=O)NCc1ccc(C(F)(F)Cl)nc1N1CCCCCC1)c1ccc(NS(C)(=O)=O)c(F)c1 (stereo not shown) [Example 132, N-[2-azepan-1-yl-6-(chloro-difluoro-methyl)-pyridin-3-ylmethyl]-2-(3-fluoro-4-methylsulfonamido-phenyl)-propionamide]	0	0.7	14.7		
CC(C(=O)NCc1ccc(C(F)(F)F)nc1N1CCC(c2ccccc2)CC1)c1ccc(NS(C)(=O)=O)c(F)c1 (stereo not shown) [Example 137]	9	1.9			
COc1cc(C(C)C(=O)NCc2ccc(C(F)(F)F)nc2N2CCC(C)CC2)ccc1NS(C)(=O)=O (stereo not shown) [Example 289, 2-(4-methylsulfonamido-3-methoxy-phenyl)-N-(4-methyl-6′-trifluoromethyl-3,4,5,6-tetrahydro-2H-[1,2′]bipyridinyl-3′-ylmethyl)-propionamide]		3.3		2.5	inhibition in percent, IC50 (human) after pH stimulus (VR1/TRPV1 receptor; @ 1 μM, ne = no effect): ne @ 1 μM
CC(C(=O)NCc1ccc(C(F)(F)F)nc1N1CCC(Nc2ccccc2)CC1)c1ccc(NS(C)(=O)=O)c(F)c1 (stereo not shown) [Example 290, 2-(3-fluoro-4-methylsulfonamido-phenyl)-N-(4-phenylamino-6′-trifluoromethyl-3,4,5,6-tetrahydro-2H-[1,2′]bipyridinyl-3′-ylmethyl)-propionamide]			480	4.4	inhibition in vivo at 0.1 mg/kg [1]: 24%
